How the values were obtained:
[1] = molar heat capacity at constant pressure; conditions: 101.33 kPa, Crystal, Small sample (50 mg) DSC
[2] = molar heat capacity at constant pressure; an = ratio of the nth substance listed; conditions: 100 kPa, Crystal of intercomponent compound 1, Small sample (50 mg) DSC, a2 = 25

[Bi+3].[Bi+3].[O-2].[O-2].[O-2] [bismuth oxide]
[1]
Conditions	molar heat capacity at constant pressure [J/K/mol]
333 K	115.4
353 K	117
403 K	120.1
453 K	122.4
503 K	124.6
553 K	126.5
603 K	128
653 K	129.7
703 K	131.4
753 K	132.7
778 K	133.2
803 K	133.3
813 K	133.5

[Fe+3].[Fe+3].[O-2].[O-2].[O-2] [ferric oxide] + [Bi+3].[Bi+3].[O-2].[O-2].[O-2]
[2]
Conditions	molar heat capacity at constant pressure [J/K/mol]
308 K	1355.9
353 K	1430.1
403 K	1482.3
453 K	1520.3
503 K	1543.9
553 K	1563.9
603 K	1587.1
653 K	1610.4
703 K	1628.1
753 K	1644.7
803 K	1658.4
818 K	1662.7

— the NIST ThermoML archive (doi:10.1016/j.jct.2017.11.015)
